# Measured values reported in patent publication EP2601952A1, “Novel pharmaceutically acceptable salts and cocrystals of 5-chloro-3-(4-methanesulfonylphenyl)-6'-methyl-[2,3']bipyridinyl and their therapeutic uses” (Zentiva, k.s., priority 2011, dated 2013).
# Legend:
# [1] = anhydrous crystalline forms I, II, III, IV and V; Journal of Pharmaceutical Sciences, 95, 1, 56-69 (2006); cited from earlier work
# [2] = DVS isotherm (hygroscopicity, hydrate formation); assay type: physicochemical; details: for hygroscopicity: DVS isotherm plot (Figure 4 / Figure 11)
# [3] = Polymorphic stability: maturation / slurrying of the salts in various solvents; assay type: physicochemical
# Description: Example 6: Method for assessing polymorphic stability of the succinic acid salt and Form A of the fumaric acid salt of 5-chloro-3-(4-methanesulfonylphenyl)-6'-methyl-[2,3']bipyridinyl.
# Approximately 50-100 mg of the salts under investigation were suspended in 1ml of water, ethanol, 1-propanol, 2-propanol, 1-butanol, 2-butanol, tert-butanol, 1-pentanol, acetone, methyl ethyl ketone, isobutyl methyl ketone, ethyl formate, methyl acetate, ethyl acetate, propyl acetate, isopropyl acetate, butyl acetate, isobutyl acetate, tetrahydrofuran, 1,4-dioxane, toluene, acetonitrile and N-methyl pyrrolidine. […] The excess solvent was removed and the samples evaporated to dryness in a vacuum oven at 25 °C.
smiles,measurement,setting,value
"Cc1ccc(-c2ncc(Cl)cc2-c2ccc(S(C)(=O)=O)cc2)cn1 [etoricoxib, 5-Chloro-3-(4-methanesulfonylphenyl)-6'-methyl-[2,3']bipyridinyl]",instability of anhydrous crystalline forms,[1],convert to hemihydrate
"Cc1ccc(-c2ncc(Cl)cc2-c2ccc(S(C)(=O)=O)cc2)cn1.O=C(O)/C=C/C(=O)O [Form A of the fumaric acid salt, fumaric acid salt of 5-chloro-3-(4-methanesulfonylphenyl)-6'-methyl-[2,3']bipyridinyl]",hygroscopicity,[2],relatively non-hygroscopic
same,polymorphic conversion on slurrying,[3]; slurrying in an aliphatic alcohol or cyclic ether,Form B can be generated
"Cc1ccc(-c2ncc(Cl)cc2-c2ccc(S(C)(=O)=O)cc2)cn1.O=C(O)CCC(=O)O [succinic acid salt, succinic acid salt of 5-chloro-3-(4-methanesulfonylphenyl)-6'-methyl-[2,3']bipyridinyl]",hygroscopicity,[2],relatively non-hygroscopic
same,stability with respect to hydrate formation,"[2]; DVS isotherm plot, Figure 4",stable with respect to hydrate formation
same,polymorphic changes when maturated in various solvents,"[3]; Example 6: suspended in 1 ml of solvent, agitated at 25°C for 35 days",lack of observed polymorphic changes
